Assay results from patent US20080115593A1, “Method for Detecting Conformational Change of Calmodulin, a Method for Screening a Substance Having an Activity that Affects to Conformational Change of Calmodulin” (FUENCE CO., LTD., priority 2004, published 2008).

Molecular target: T1, Calmodulin derived from bovine (Bos taurus, UniProt P62157)
T1 construct: purchased Sigma
Test: Tension and elasticity change of calmodulin film detected by mechanochemical sensor (Example 1)
Type: binding
Conditions: FIG. 1; for isotropic tension of the calmodulin film: 10 mM Hepes buffer pH7.4 containing 0.1 M NaCl, flow 0.1 to 0.2 mL/min
Description: Calmodulin derived from bovine (Sigma) was dissolved into purified water at a concentration of 2 mg/ml. This solution was sprayed under dry air using an electrospry device described in WO 2002-511792 or an immobilzing device described in Japanese Patent Publication No. 2003-136005. The solution was permeated through a mask with holes of 400 μm in length and 800 μm in width, and then a film was prepared on 1.2% polyvinylpyrrolidone using an electrospray method (the EDS method). The resulting film was placed on an apparatus having a mechanochemical sensor which was described in WO 2002-503332 or U.S. Pat. Publication No. 6,033,913, and it was immersed into 10 mM Hepes buffer solution pH7.4 (hereinafter referred to as “the buffer solution”) containing 0.1 M NaCl. The buffer solution was passed through the film existing on the detecting apparatus at the flow rate of 0.1 to 0.2 mL/min, in order to stabilize the tension of the sample film. Thereafter CaCl2 solution dissolved in said buffer solution was passed through at the same flow rate to detect changes in tension and elasticity (FIG. 1).
A place where the horizontal line (indicating the initial state) uprises means a point where tension is given to the sample film, and compliance is detected where the line oscillates. […] Meanwhile, for example, following review can be refereed to the conformational change of calmodulin, (Vetter S. W. and Leclerc, E. (2003). Novel aspects of calmodulin target recognition and activation. Eur. J. Biochem. 270, 404-414).

Compound | isotropic tension of the calmodulin film | reversibility of the effect on the film when restored by the buffer solution (buffer solution passed after CaCl2)
[Ca+2].[Cl-].[Cl-] [CaCl2] | remarkably increases | reversible
O=C(O)CN(CCN(CC(=O)O)CC(=O)O)CC(=O)O [EDTA] | further decreases | –
